One assay concerns the target T1, GRPR on HSC-3 cells (Homo sapiens, UniProt P30550).
T1 construct: endogenous in cells; host or cells: HSC-3 (human tongue squamous cell carcinoma)
Nature of the assay: Specificity binding (blocking) assay, NIR fluorescence microscopy. Particulars: 37 °C. The class given is cell-based. How it is done:
The binding specificities of AF750-6Ahx-Sta-BBN were determined with HSC-3 cells of human oral tongue squamous cell carcinoma using previously described methods. […] To determine the binding affinity of AF750-6Ahx-Sta-BBN in HSC-3, cells were first incubated with BBN (1–14), then added increasing concentrations of AF750-6Ahx-Sta-BBN (0.005–50 nM). Cells were washed after 50 min incubation and examined by flow cytometry. The binding affinity to GRPR is shown in Fig. 7, and plotted as the fluorescence intensity as function of the AF750-6Ahx-Sta-BBN concentration (Fig. 7B).
Figure 6 The specificity binding assay of AF750-6Ahx-Sta-BBN to GRPR on HSC-3 cells at 37 °C. The scale bar is 30 μm.

Assay [1] relates to HSC-3 cells. In words: Time-dependent cell uptake, flow cytometry. The class given is cell-based, human. Particulars: HSC-3, 2 × 10^6 cells, 37 °C, performed three times. The protocol: (§1) The time-dependent experiment was carried out on HSC-3 cells for both AF750-6Ahx-Sta-BBN and NGO-BBN-AF750. […] With increase of incubation time, cells uptake increased, and at the first 15 min, we observed a rapid binding of up to 80%. […] The cell uptake was 83 ± 15% and 89 ± 29% (AF750-6Ahx-Sta-BBN) and 85 ± 15% and 96 ± 20% (NGO-BBN-AF750) at 30 min and 60 min, respectively. We further conducted confocal laser scanning microscope experiments to evaluate the internalization of AF750-6Ahx-Sta-BBN and NGO-BBN-AF750 into HSC-3 cells and HOK cells. Blue fluorescence (Excitation, 460 nm) was used to represent the nuclei of HSC-3 cells. Red (Excitation, 750 nm) channel represents the fluorescence signal of AF750. […] While AF750-6Ahx-Sta-BBN is a GRPR antagonist to the HSC-3, NGO-BBN-AF750 may be internalized into HSC-3 cells via the combined interaction of BBN binding and the endocytosis of the nanoparticle. Evaluating nanotoxicity of NGO-BBN-AF750 was a part of our experimental design.
HSC-3 cells were seeded into 3.5 cm^2 culture dish at a density of 2 × 10^6, next cells were incubated with AF750-6Ahx-Sta-BBN or NGO-AF750-BBN at 37 °C for 15, 30, 60 and 120 min, respectively. Then, cells were washed three times with chilled PBS and harvested for flow cytometry measurements. Experiments were performed three times. For internalization studies, HSC-3 cells were cultured in 24-well plates at 2 × 10^4 cells/well and grown for 24 h. Next, the original medium was replaced with fresh medium containing 50 nM AF750-6Ahx-Sta-BBN or NGO-BBN-AF750. The cells were then incubated for 4 h. After washing the cells three times with PBS, 2.5% paraformaldehyde was used to fix the cells. Then DAPI (Excitation, […]) was used to stain the nuclei of the cells. Finally, the cells were visualized under OLYMPUS FV1200 confocal laser scanning microscope (Olympus, Osaka, Japan). In addition, HOK cells were used as a GRPR-negative control group and cultured with NGO-BBN-AF750, the above experiment was performed and compared to the HSC-3 cells.

Assay [2] concerns HSC-3 cells. In words: Internalization study, confocal laser scanning microscopy. To be noted: HSC-3, 50 nM probe, 4 h, DAPI nuclear stain. The class given is cell-based, human. How it is done: as §1
HSC-3 cells were seeded into 3.5 cm^2 culture dish at a density of 2 × 10^6, next cells were incubated with AF750-6Ahx-Sta-BBN or NGO-AF750-BBN at 37 °C for 15, 30, 60 and 120 min, respectively. Then, cells were washed three times with chilled PBS and harvested for flow cytometry measurements. Experiments were performed three times. […]

The next assay has as its target T2, GRPR (Homo sapiens, UniProt P30550).
T2 construct: The paraffin-embedded samples, obtained from the Department of Pathology, Stomatology Hospital of Shanxi Medical University, were cut into 4-µm slices; from tissue; host or cells: paraffin-embedded OSCC tissue and normal oral mucosa sections from patients
In words: Immunofluorescence assay of paraffin tissue sections with the fluorescent probe. To be noted: 4-µm paraffin sections, probe 10 min in the dark, ImageJ quantitation. The protocol:
We analyzed the expression levels of GRPR in primary OSCC sections and the normal tissue sections using AF750-6Ahx-Sta-BBN immunofluorescence assay.
The paraffin-embedded samples, obtained from the Department of Pathology, Stomatology Hospital of Shanxi Medical University, were cut into 4-µm slices. Then tissue blocks were treated with xylene and dehydrated using a graded ethanol series. Following that, the sections were heated for antigen retrieval and incubated in 3% H2O2 to block endogenous peroxidase. The BSA was added and incubated at 37 °C for 30 min. After that, BSA was removed and AF750-6Ahx-Sta-BBN was added and incubated for 10 min in the dark. The slides were observed and imaged using an inverted Olympus fluorescence microscope (Olympus Corp., Osaka, Japan). Quantitative analysis of GRPR expression was performed using ImageJ (https://imagej.nih.gov/ij/). Each patient received written informed consent before the study.

Assay [3] concerns GRPR overexpressed in a prostate cancer PC-3 cell line. Particulars: cited from earlier work. An excerpt:
AF750-6Ahx-Sta-BBN is a GRPR antagonist peptide analog.

T1 sequence (P30550 whole entry): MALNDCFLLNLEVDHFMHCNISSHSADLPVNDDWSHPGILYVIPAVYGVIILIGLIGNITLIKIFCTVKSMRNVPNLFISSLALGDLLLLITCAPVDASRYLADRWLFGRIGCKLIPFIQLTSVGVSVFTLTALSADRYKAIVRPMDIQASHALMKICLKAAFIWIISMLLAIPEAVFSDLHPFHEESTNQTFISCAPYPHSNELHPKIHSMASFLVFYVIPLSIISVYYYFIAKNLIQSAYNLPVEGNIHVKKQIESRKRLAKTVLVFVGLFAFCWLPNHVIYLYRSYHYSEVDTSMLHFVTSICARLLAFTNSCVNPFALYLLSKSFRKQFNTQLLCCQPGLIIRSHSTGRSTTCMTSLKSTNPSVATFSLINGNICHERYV
T2 sequence (P30550 whole entry): as above

In the case of “-DPhe-Gln-Trp-Ala-Val-Gly-His-Sta-Leu-NH2 [AF750-6Ahx-Sta-BBN, GRPR-specific Alexa Fluor 750 labeled BBN antagonist peptide; Sta-BBN conjugated to AF750 via 6-aminohexanoic acid linker]”, at GRPR on HSC-3 cells (HSC-3 cells incubated with excessive BBN (1–14) for 10 min before the probe), the “NIR fluorescence of cells, blocking group” value is recorded as “no fluorescence signal”. Besides, the “NIR fluorescence of cells, uptake group” value at GRPR on HSC-3 cells (HSC-3 cells incubated with probe, no blocking) was “strong NIR fluorescence signals”. Also, in the assay with HSC-3 cells [1] (15 min), the “binding in the first 15 min” value is “up to 80%”. The “cell uptake at 30 min” value in the assay with HSC-3 cells [1] (30 min) turned out to be 83 ± 15%. For the same substance, the “cell uptake at 60 min” value in the assay with HSC-3 cells [1] (60 min) is recorded as 89 ± 29%. Moreover, in the assay on HSC-3 cells [2], the “cellular localisation / internalization” value is given as “observed on the membrane of HSC-3”. Further, the “fluorescence intensity increase, OSCC tissue versus normal oral mucous tissue” value at GRPR was 2.5 fold. The “binding affinity and specificity to GRPR” value in assay [3] is “high binding affinity and specificity”.

The values are drawn from PMC7351765, “Gastrin releasing peptide receptor targeted nano-graphene oxide for near-infrared fluorescence imaging of oral squamous cell carcinoma” (Scientific Reports, 2020).
